Measurements reported in PubChem BioAssay (NCI).
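Tested at 5 concentrations; 48 h exposure; 96-well plates; endpoints linearly interpolated, else capped at highest concentration. GI50 = concentration required for 50% inhibition of growth. TGI denotes the concentration required for complete inhibition of growth.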

Experiments:
Experiment in all cases: inhibition of tumour cell growth, NCI panel, 48 h
LOX IMVI melanoma = test system: LOX IMVI melanoma
SF-539 CNS = test system: SF-539 CNS
NCI-H23 lung = test system: NCI-H23 lung
MDA-MB-435 = test system: MDA-MB-435
SK-OV-3 ovarian = test system: SK-OV-3 ovarian
NCI-H226 lung = test system: NCI-H226 lung
PC-3 prostate = test system: PC-3 prostate
RXF 393 renal = test system: RXF 393 renal
HCT-15 colon = test system: HCT-15 colon
MALME-3M melanoma = test system: MALME-3M melanoma
NCI-H460 lung = test system: NCI-H460 lung
HL-60(TB) leukemia = test system: HL-60(TB) leukemia
MCF7 breast = test system: MCF7 breast
EKVX NSCLC = test system: EKVX NSCLC
DU-145 prostate = test system: DU-145 prostate
UO-31 renal = test system: UO-31 renal
SNB-19 CNS = test system: SNB-19 CNS
SR leukemia = test system: SR leukemia
UACC-62 melanoma = test system: UACC-62 melanoma
HOP-62 NSCLC = test system: HOP-62 NSCLC
TK-10 renal = test system: TK-10 renal
HT29 colon = test system: HT29 colon
SW-620 colon = test system: SW-620 colon
HCC-2998 colon = test system: HCC-2998 colon
MDA-MB-231 breast = test system: MDA-MB-231 breast
OVCAR-4 ovarian = test system: OVCAR-4 ovarian
SF-295 CNS = test system: SF-295 CNS
HCT-116 colon = test system: HCT-116 colon
CAKI-1 renal = test system: CAKI-1 renal
SK-MEL-5 melanoma = test system: SK-MEL-5 melanoma
A498 renal = test system: A498 renal
SF-268 CNS = test system: SF-268 CNS
SN12C renal = test system: SN12C renal
NCI/ADR-RES ovarian = test system: NCI/ADR-RES ovarian
ACHN renal = test system: ACHN renal
IGROV1 ovarian = test system: IGROV1 ovarian
HOP-92 NSCLC = test system: HOP-92 NSCLC
SK-MEL-28 melanoma = test system: SK-MEL-28 melanoma
OVCAR-8 ovarian = test system: OVCAR-8 ovarian
OVCAR-5 ovarian = test system: OVCAR-5 ovarian
T-47D breast = test system: T-47D breast
HS 578T breast = test system: HS 578T breast
SK-MEL-2 melanoma = test system: SK-MEL-2 melanoma
SNB-75 CNS = test system: SNB-75 CNS
COLO 205 colon = test system: COLO 205 colon
KM12 colon = test system: KM12 colon
M14 melanoma = test system: M14 melanoma
NCI-H522 lung = test system: NCI-H522 lung
BT-549 breast = test system: BT-549 breast
A549 NSCLC = test system: A549 NSCLC
UACC-257 melanoma = test system: UACC-257 melanoma
OVCAR-3 ovarian = test system: OVCAR-3 ovarian
CCRF-CEM leukemia = test system: CCRF-CEM leukemia
RPMI-8226 leukemia = test system: RPMI-8226 leukemia
786-0 renal = test system: 786-0 renal
U251 CNS = test system: U251 CNS
MOLT-4 leukemia = test system: MOLT-4 leukemia
K-562 leukemia = test system: K-562 leukemia

CN[C@@H](C)C(=O)N[C@H]1CCS[C@H]2CC(C)(C)[C@@H](C(=O)N[C@H]3c4ccccc4C[C@H]3OCC#CC#CCO[C@@H]3Cc4ccccc4[C@@H]3NC(=O)[C@H]3N4C(=O)[C@@H](NC(=O)[C@H](C)NC)CCS[C@H]4CC3(C)C)N2C1=O
GI50 (LOX IMVI melanoma): 13.8 µM | TGI (LOX IMVI melanoma): > 50 µM | GI50 (SF-539 CNS): 0.0118 µM | TGI (SF-539 CNS): 2.4 µM | GI50 (NCI-H23 lung): > 32 µM | TGI (NCI-H23 lung): > 50 µM | GI50 (MDA-MB-435): > 23 µM | TGI (MDA-MB-435): > 50 µM | GI50 (SK-OV-3 ovarian): < 0.005 µM | TGI (SK-OV-3 ovarian): < 0.005 µM | GI50 (NCI-H226 lung): > 50 µM | TGI (NCI-H226 lung): > 50 µM | GI50 (PC-3 prostate): > 28.4 µM | TGI (PC-3 prostate): > 50 µM | GI50 (RXF 393 renal): 0.423 µM | TGI (RXF 393 renal): 5.24 µM | GI50 (HCT-15 colon): > 50 µM | TGI (HCT-15 colon): > 50 µM | GI50 (MALME-3M melanoma): 0.00951 µM | TGI (MALME-3M melanoma): 0.115 µM | GI50 (NCI-H460 lung): 24.6 µM | TGI (NCI-H460 lung): > 50 µM | GI50 (HL-60(TB) leukemia): 0.0759 µM | TGI (HL-60(TB) leukemia): 2.33 µM | GI50 (MCF7 breast): 5.87 µM | TGI (MCF7 breast): 17.8 µM | GI50 (EKVX NSCLC): > 38.9 µM | TGI (EKVX NSCLC): > 50 µM | GI50 (DU-145 prostate): 20.6 µM | TGI (DU-145 prostate): > 50 µM | GI50 (UO-31 renal): > 50 µM | TGI (UO-31 renal): > 50 µM | GI50 (SNB-19 CNS): > 50 µM | TGI (SNB-19 CNS): > 50 µM | GI50 (SR leukemia): 0.0264 µM | TGI (SR leukemia): > 22.1 µM | GI50 (UACC-62 melanoma): > 50 µM | TGI (UACC-62 melanoma): > 50 µM | GI50 (HOP-62 NSCLC): 3.72 µM | TGI (HOP-62 NSCLC): > 50 µM | GI50 (TK-10 renal): > 50 µM | TGI (TK-10 renal): > 50 µM | GI50 (HT29 colon): 20.2 µM | TGI (HT29 colon): > 50 µM | GI50 (SW-620 colon): > 50 µM | TGI (SW-620 colon): > 50 µM | GI50 (HCC-2998 colon): 19.5 µM | TGI (HCC-2998 colon): > 50 µM | GI50 (MDA-MB-231 breast): < 0.005 µM | TGI (MDA-MB-231 breast): 0.0239 µM | GI50 (OVCAR-4 ovarian): 0.0146 µM | TGI (OVCAR-4 ovarian): 0.203 µM | GI50 (SF-295 CNS): > 50 µM | TGI (SF-295 CNS): > 50 µM | GI50 (HCT-116 colon): > 28.8 µM | TGI (HCT-116 colon): > 50 µM | GI50 (CAKI-1 renal): > 50 µM | TGI (CAKI-1 renal): > 50 µM | GI50 (SK-MEL-5 melanoma): 4.75 µM | TGI (SK-MEL-5 melanoma): > 16.8 µM | GI50 (A498 renal): > 50 µM | TGI (A498 renal): > 50 µM | GI50 (SF-268 CNS): 41.9 µM | TGI (SF-268 CNS): > 50 µM | GI50 (SN12C renal): > 46.9 µM | TGI (SN12C renal): > 50 µM | GI50 (NCI/ADR-RES ovarian): > 50 µM | TGI (NCI/ADR-RES ovarian): > 50 µM | GI50 (ACHN renal): > 50 µM | TGI (ACHN renal): > 50 µM | GI50 (IGROV1 ovarian): 32.1 µM | TGI (IGROV1 ovarian): > 50 µM | GI50 (HOP-92 NSCLC): 2.99 µM | TGI (HOP-92 NSCLC): 14.3 µM | GI50 (SK-MEL-28 melanoma): > 46.6 µM | TGI (SK-MEL-28 melanoma): > 50 µM | GI50 (OVCAR-8 ovarian): 35.9 µM | TGI (OVCAR-8 ovarian): > 50 µM | GI50 (OVCAR-5 ovarian): > 50 µM | TGI (OVCAR-5 ovarian): > 50 µM | GI50 (T-47D breast): 29.9 µM | TGI (T-47D breast): > 50 µM | GI50 (HS 578T breast): 15.5 µM | TGI (HS 578T breast): > 50 µM | GI50 (SK-MEL-2 melanoma): 0.174 µM | TGI (SK-MEL-2 melanoma): 13.9 µM | GI50 (SNB-75 CNS): 1.99 µM | TGI (SNB-75 CNS): 21.4 µM | GI50 (COLO 205 colon): 25.2 µM | TGI (COLO 205 colon): > 50 µM | GI50 (KM12 colon): 30.5 µM | TGI (KM12 colon): > 50 µM | GI50 (M14 melanoma): > 50 µM | TGI (M14 melanoma): > 50 µM | GI50 (NCI-H522 lung): 7.38 µM | TGI (NCI-H522 lung): 32 µM | GI50 (BT-549 breast): 0.00762 µM | TGI (BT-549 breast): 6.38 µM | GI50 (A549 NSCLC): > 50 µM | TGI (A549 NSCLC): > 50 µM | GI50 (UACC-257 melanoma): > 50 µM | TGI (UACC-257 melanoma): > 50 µM | GI50 (OVCAR-3 ovarian): 12 µM | TGI (OVCAR-3 ovarian): > 43.9 µM | GI50 (CCRF-CEM leukemia): 0.0966 µM | TGI (CCRF-CEM leukemia): 12.3 µM | GI50 (RPMI-8226 leukemia): 2.25 µM | TGI (RPMI-8226 leukemia): > 36 µM | GI50 (786-0 renal): > 50 µM | TGI (786-0 renal): > 50 µM | GI50 (U251 CNS): > 50 µM | TGI (U251 CNS): > 50 µM | GI50 (MOLT-4 leukemia): 9.86 µM | TGI (MOLT-4 leukemia): 22.4 µM | GI50 (K-562 leukemia): 12.9 µM | TGI (K-562 leukemia): > 33.4 µM
